Data reported in patent publication US8765117B2, “Generation of vascularized human heart tissue and uses thereof” (The General Hospital Corporation, priority 2009, dated 2014).
“Also recorded” adds a separate entry of the source.

How the values were obtained:
Format in all cases: cell-based
[1] = test system: human ISL1-βgeo BAC transgenic cells; experiment: Expansion of hES cell-derived ISL1+ clones on mouse CMC feeders with BIO
Procedure: FIGS. 9A-9B show the expansion and characterization of hES cell-derived ISL1+ cardiac progenitors. FIG. 9A show ISL1+ cells increased by BIO treatment. Day 6 EBs of human ISL1-βgeo BAC transgenic cells were dissociated and cultured on mouse CMC feeders for two days before treated with and without BIO for another five days. Colonies were stained with anti-ISL1 antibody and counted for ISL1+ ones. […] Cells dissociated from day 7 EBs of human ISL1-cre DsRed cells were plated on Wnt3a-secreting feeders, cultured for five days and FACS isolated. Gene expression of DsRed+ cells was compared with DsRed− cells. Bars represent mean±s.d.; n=3.
Canonical Wnt pathways can promote the expansion of Isl1+ cardiac progenitors in the mouse^18-20. […] The inventors then isolated human ISL1-cre DsRed cells from day 7 EBs, which were dissociated and plated on a plastic surface, MEF, Wnt3a-secreting, or L cell feeders.

[2] = test system: human Isl1+ primordial progenitors; experiment: Differentiation of human Isl1+ primordial progenitors along vasculargenic lineages into Isl1+/CD31+ cells (FACS with anti-CD31); settings: for increase of human Isl1+/CD31+ (GFP+/CD31+) cells: VEGF D4-D22 or ALK5 inhibitor D7-D22, compared to absence of the agent; for proportion of Isl1−/CD31+ cells: human ES cells
Description: When Isl1+ is expressed in this ES cell line, the cells co-express GFP.

mouse Isl1+ cells = experiment: Vasculargenic commitment of mouse ES cells into mouse Isl1+/CD31+ cells (FACS with anti-CD31); settings: for proportion of Isl1−/CD31+ cells: mouse ES cells; for vasculargenic commitment / differentiation into Isl1+/CD31+ cells (in words): mouse cells

Molecule | ISL1+ cells (in words) ([1]; BIO for five days on mouse CMC feeders) | increase of human ISL1+ clones ([1]; compared to CMC control) | increase of human Isl1+/CD31+ (GFP+/CD31+) cells [2] | increase of human Isl1+/CD31+ (GFP+/CD31+) cells ([2]; listed as ALK5i) [fold] | proportion of Isl1−/CD31+ cells [2] | vasculargenic commitment / differentiation into human Isl1+/CD31+ cells (in words) [2] | vasculargenic commitment / differentiation into human Isl1+/CD31+ cells (in words) ([2]; listed as ALK5i) | overall human Isl1+ (GFP+) population ([2]; prolonged treatment) | proportion of Isl1−/CD31+ cells (mouse Isl1+ cells) | vasculargenic commitment / differentiation into Isl1+/CD31+ cells (in words) (mouse Isl1+ cells) | vasculargenic commitment / differentiation into Isl1+/CD31+ cells (in words) (mouse Isl1+ cells; listed as ALK5i) | vessel-like structures in vitro ([2]; VEGF treatment) | vessel-like structures (mouse Isl1+ cells; Isl1+ (YFP+) cells sorted at D8, cultured with VEGF until D20) | increase of efficiency of differentiation into Isl1+/CD31+ cells (mouse Isl1+ cells; mouse Isl1+ cells, VEGF about 2 weeks from D4)
O=C1Nc2cc(Br)ccc2/C1=C1/Nc2ccccc2/C1=N\O [BIO, 6-bromoindirubin-3′-oxime] | increased | over 30% |  |  |  |  |  |  |  |  |  |  |  | 
NC(=O)c1ccc(-c2nc(-c3ccc4c(c3)OCO4)c(-c3ccccn3)[nH]2)cc1 [SB431542, 4-[4-(1,3-Benzodioxol-5-yl)-5-(2-pyridinyl)-1H-imidazol-2-yl]-benzamide] |  |  | 4-5 fold | 4 to 5 | increases the proportion of Isl1−/CD31+ cells | increases the efficiency of differentiation | promotes the vasculargenic commitment | reduced the overall human Isl1+ (GFP+) population | increases the proportion of Isl1−/CD31+ cells | increases the efficiency of differentiation | promotes the vasculargenic commitment |  |  | 
VEGF |  |  |  |  | increases the proportion of Isl1−/CD31+ cells | promotes the vasculargenic commitment |  |  | increases the proportion of Isl1−/CD31+ cells | promotes the vasculargenic commitment; also recorded: increases efficiency of differentiation |  | produced vessel-like structures in vitro | demonstrated vessel-like structures | at least 2 fold
